Data: patent publication US4283394A, “Cytotoxic nucleoside-corticosteroid phosphodiesters” (priority 1979, dated 1981)

How the values were obtained:
[1] = tested on: intracerebrally implanted L-1210; assay: Antitumor activity against intracerebrally (i.c.) implanted L-1210 in mice; type: in vivo; settings: 50 mg/kg/day × 5 i.p.; for Survivors on day 35: groups of 8 mice; for Percent T/C: values as of 35th day
Experimental: Effects of the conjugate on i.c. implanted L-1210 in mice were also studied. A mouse (C3 D2 F1 /J, female, avg. wt. 20 g) was anesthesized with diethyl ether, the right parietal scalp was washed with 70 percent ethanol, a 27 G 1/2 needle with a guard placed on the outside of the barrel 1.5 mm from the top of the bevel, was inserted through the skull and 1×10^5 cells in 0.05 ml suspension were inoculated into the mouse. The conjugate in 0.9 percent NaCl (0.5 ml) was administered intraperitoneally once daily. Treatment began 24 h after implantation and continued for 5 consecutive days. Control animals received a 0.5 ml injection of saline. Testing was followed as described in the NCI protocol and evaluated by recording the survival time according to the formula appearing in protocol 11.

[2] = tested on: mouse leukemia L-1210 cells; assay: Antiproliferative activity in vitro, viability of L-1210 cells in culture; type: cell-based; settings: for antiproliferative activity compared with ara-CMP and ara-C: 72 h; for IC50: Mus musculus, L1210, 72 h, read-out: Concentration (μM) for 50 percent loss of viability at 72 hours (ED50)
Experimental: The antiproliferative activity of the conjugates, ara-C, ara-CMP and the steroids was determined by measuring their effects against mouse leukemia L-1210 cells in culture. The assay was performed in test tubes without agitation according to the procedure described by Hong et al. in J. Med. Chem. 16: 139 (1973). After 24, 48 and 72 h, viable cell counts were performed on the cultures which had been incubated with compounds in various concentrations and the concentration of each compound required to produce a 50 percent inhibition of growth (ED50) after 72 h was determined by interpolation using the method described by Tritsch et al. in Cancer Biochem. Biophys. 2: 87 (1977).

[3] = tested on: crude Crotalus adamenteus venom; type: in vitro ADME; settings: 2.5 mg crude venom, 24 h, 37° C.
Experimental: (§1) Enzymatic cleavage of the phosphodiester bond of the conjugates was studied by incubating the conjugates (5 μmol) with various enzymes (1.5-3 mg) in appropriate buffer and with plasma (final volume 0.5 ml). An aliquot (200 μl) of the 24 h incubation mixtures was streaked on Whatman 3 MM paper (23×57 cm) with the authentic markers and the paper was developed in Solvent A. The bands were characterized and analyzed semi-quantitatively by UV estimation of the chromatographs. […] The conjugates also remained 60-85 percent intact during the incubation with baboon plasma at 37° C. for 24 h. From the results of these tests, conjugates of this type appear capable of serving as sustained release froms of the parent steroid and nucleoside components thereof.

[4] = Incubation with fresh baboon plasma; type: in vitro ADME; settings: 37° C.; for metabolised at 24 h: 0.5 ml fresh baboon plasma, read-out: percent hydrolyzed in plasma; for remaining at 24 h: read-out: remaining conjugate among products
Experimental: as §1
The conjugate (5 μmol) was incubated with 0.5 ml of fresh baboon plasma at 37° C. for 24 h. 39 percent of the pred-p-ara-C (I) was hydrolyzed, the products being pred-p-ara-C (44 percent), ara-UMP (7 percent), ara-U (21 percent) and prednisolone (28 percent). Only 15 percent of the prednisone-p-ara-C (II) was hydrolyzed, the products being prednisone-p-ara-C (74 percent), ara-UMP (13 percent) and prednisone (13 percent).

[5] = tested on: crude wheat germ acid phosphatase; assay: Enzymatic cleavage by acid phosphatase; type: in vitro ADME; settings: pH 4.8, 25° C., 24 h; for percent hydrolyzed by acid phosphatase: 3 mg enzyme
Experimental: as §1
The conjugate (5 μmol) was incubated with 0.15 M NaOAc, pH 4.8 (0.05 ml) and crude wheat germ acid phosphatase (3 mg., Sigma Chemical Co.) in 0.45 ml. of H2 O at 25° C. for 24 h. Pred-p-ara-C (I) was 86 percent hydrolyzed, the products being pred-p-ara-C (8 percent), ara-CMP (5 percent), ara-C (42 percent) and prednisolone (45 percent). Prednisone-p-ara-C (II) was 88 percent hydrolyzed, the products being prednisone-p-ara-C (7 percent), ara-CMP (4 percent), ara-C (43 percent) and prednisone (46 percent).

[6] = tested on: 5'-nucleotidase from Crotalus adamenteus; assay: Enzymatic cleavage by 5'-nucleotidase; type: in vitro ADME; settings: pH 9.0, 24 h, 37° C.; for hydrolysis by 5'-nucleotidase: 2 mg enzyme
Experimental: as §1
The conjugate (5 μmol) was incubated with 1 M Tris-HCl, pH 9.0 and 0.05 M MgSO4 (0.05 ml) and purified 5'-nucleotidase from Crotalus adamenteus (2 mg., Sigma Chemical Co.) in 0.45 ml. of H2 O for 24 h at 37° C.

[7] = tested on: i.p. implanted L1210 leukemia; assay: Comparison of conjugates and ara-C plus steroid combinations, i.p. implanted L1210 leukemic mice; type: in vivo
Experimental: Each mouse received 1×10^6 cells intraperitoneally. Doses were administered i.p. once daily to groups of 8 mice (avg. wt. 20 g) for 5 consecutive days beginning 24 hours after tumor implantation. In case of the combination, ara-C and the steroid were given at the same molar concentrations present in the conjugates. Mean survival days were calculated by the equation appearing in the NCI protocol; T/C ratios are reported in percent, i.e (treated/control)×100.

[8] = tested on: phosphodiesterase I from Crotalus adamenteus; assay: Enzymatic cleavage of the phosphodiester bond by phosphodiesterase I; type: in vitro ADME; settings: pH 8.8, 24 h, 37° C.; for hydrolysis by phosphodiesterase I: 5 μmol conjugate, 1.5 mg enzyme
Experimental: as §1
The conjugate (5 μmol) was incubated with 1 M Tris-HCl, pH 8.8 (0.05 ml) and purified phosphodiesterase I from Crotalus adamenteus (1.5 mg., Sigma Chemical Co.) in 0.45 ml. of H2 O for 24 h at 37° C.

SMILES | Mean Survival Days [1] | body weight lost by day 11 [1] | Survivors on day 35 [1] | Percent T/C [1] | antiproliferative activity compared with ara-CMP and ara-C [2] | IC50 [2] | hydrolysis by crude snake venom [3] | product ara-C [3] | product steroid [3] | metabolised at 24 h [4] | product ara-UMP ([4]; baboon plasma, 24 h) | product steroid (prednisolone or prednisone) ([4]; baboon plasma, 24 h) | remaining at 24 h ([4]; baboon plasma) | percent hydrolyzed by acid phosphatase [5] | product ara-C [5] | product ara-CMP [5] | product steroid (prednisolone or prednisone) [5] | remaining conjugate among products [5] | hydrolysis by 5'-nucleotidase [6] | product ara-C [6] | also measured
C[C@]12C=CC(=O)C=C1CC[C@@H]1[C@@H]2C(=O)C[C@@]2(C)[C@H]1CC[C@]2(O)C(=O)CO[P+]([O-])(O)OC[C@H]1O[C@@H](n2ccc(N)nc2=O)[C@@H](O)[C@@H]1O (stereo partly drawn) [Prednisone-p-ara-C (II), 5'-(Prednisone-21-phosphoryl)-1-β-D-arabinofuranosylcytosine] | 16.50 days | about 4 g | 1 | 183.3% | less active than both ara-CMP and ara-C | 0.5 µM | hydrolyzed completely | 50% | 50% | 15% | 13% | 13% | 74% | 88% | 43% | 4% | 46% | 7% | hydrolyzed completely | 50% | Percent T/C ([1]; listed as II): 183%; product prednisolone or prednisone [6]: 50%; Survival Days Mean (Treated) ([7]; 75.4 μmole/kg/day × 5): 18.13 days; Weight change on Day 8 (g/mouse) ([7]; 75.4 μmole/kg/day × 5): -0.30 g/mouse; response vs control in vivo at 75.4 µmol/kg ([7]; Mus musculus, L1210, ip, 75.4 μmole/kg/day × 5, read-out: % T/C): 210%; hydrolysis by phosphodiesterase I [8]: hydrolyzed completely; product ara-C [8]: 10%; product ara-CMP [8]: 40%; product prednisolone or prednisone [8]: 50%
C[C@]12C=CC(=O)C=C1CC[C@@H]1[C@@H]2[C@@H](O)C[C@@]2(C)[C@H]1CC[C@]2(O)C(=O)CO[P+]([O-])(O)OC[C@H]1O[C@@H](n2ccc(N)nc2=O)[C@@H](O)[C@@H]1O (stereo partly drawn) [Pred-p-ara-C (I), 5'-(Prednisolone-21-phosphoryl)-1-β-D-arabinofuranosylcytosine] | 18.13 days | about 4 g | 1 | 201.4% | activity comparable to ara-CMP | 0.05 µM | hydrolyzed completely | 50% | 50% | 39% | 7% | 28% | 44% | 86% | 42% | 5% | 45% | 8% | hydrolyzed completely | 50% | weight gained over original weight (20 g) by day 20 [1]: about 1 g; Percent T/C ([1]; listed as I): 201%; product ara-U ([4]; baboon plasma, 24 h): 21%; product prednisolone or prednisone [6]: 50%; Survival Days Mean (Treated) ([7]; 75.0 μmole/kg/day × 5): 19.13 days; Weight change on Day 8 (g/mouse) ([7]; 75.0 μmole/kg/day × 5 (each, for combinations)): -0.28 g/mouse; T/C ([7]; 114.7 μmol/kg/day): 178%; response vs control in vivo at 75 µmol/kg ([7]; Mus musculus, L1210, ip, 75.0 μmole/kg/day × 5, read-out: % T/C): 201%; hydrolysis by phosphodiesterase I [8]: hydrolyzed completely; product ara-C [8]: 10%; product ara-CMP [8]: 40%; product prednisolone or prednisone [8]: 50%
